Results taken from patent US20220298138A1, “ENZYME INHIBITORS” (KALVISTA PHARMACEUTICALS LIMITED, priority 2019, published 2022).

Experiments:
Human Factor XIIa = target: T1, Human Factor XIIa (Homo sapiens, UniProt P00748); assay: Factor XIIa inhibitory activity in vitro (fluorogenic substrate H-DPro-Phe-Arg-AFC); format: biochemical; settings: 25° C., class symbols, read-out: Human FXIIa IC50
T1 construct: purchased Enzyme Research Laboratories
T1 sequence (P00748 373-615 limits assumed): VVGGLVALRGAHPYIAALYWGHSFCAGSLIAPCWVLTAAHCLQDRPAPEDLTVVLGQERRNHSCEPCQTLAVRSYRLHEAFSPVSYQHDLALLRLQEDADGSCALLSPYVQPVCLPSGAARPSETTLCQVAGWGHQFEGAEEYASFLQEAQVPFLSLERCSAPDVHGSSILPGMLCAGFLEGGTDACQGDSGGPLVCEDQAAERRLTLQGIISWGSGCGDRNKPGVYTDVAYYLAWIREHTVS
Summary of the method: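 Enzyme incubated at 25° C with fluorogenic substrate H-DPro-Phe-Arg-AFC and a range of compound concentrations. Residual activity taken as initial reaction rate from […], giving IC50.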

Human FXIa = target: T2, Human FXIa (Homo sapiens, UniProt P03951); assay: FXIa inhibitory activity in vitro (fluorogenic substrate Z-Gly-Pro-Arg-AFC), selectivity; format: biochemical; settings: category scale, 25° C.
T2 construct: Human FXIa (Enzyme Research Laboratories) was incubated; purchased Enzyme Research Laboratories
T2 sequence (P03951 388-625 limits assumed): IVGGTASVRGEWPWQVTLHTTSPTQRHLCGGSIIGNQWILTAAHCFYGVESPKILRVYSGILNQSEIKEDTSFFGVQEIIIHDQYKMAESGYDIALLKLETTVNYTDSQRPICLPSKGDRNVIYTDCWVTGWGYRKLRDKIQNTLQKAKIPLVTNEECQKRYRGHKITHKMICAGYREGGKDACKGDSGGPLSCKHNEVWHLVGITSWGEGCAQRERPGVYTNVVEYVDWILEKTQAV
T2 sequence (P03951 19-387 partner limits assumed): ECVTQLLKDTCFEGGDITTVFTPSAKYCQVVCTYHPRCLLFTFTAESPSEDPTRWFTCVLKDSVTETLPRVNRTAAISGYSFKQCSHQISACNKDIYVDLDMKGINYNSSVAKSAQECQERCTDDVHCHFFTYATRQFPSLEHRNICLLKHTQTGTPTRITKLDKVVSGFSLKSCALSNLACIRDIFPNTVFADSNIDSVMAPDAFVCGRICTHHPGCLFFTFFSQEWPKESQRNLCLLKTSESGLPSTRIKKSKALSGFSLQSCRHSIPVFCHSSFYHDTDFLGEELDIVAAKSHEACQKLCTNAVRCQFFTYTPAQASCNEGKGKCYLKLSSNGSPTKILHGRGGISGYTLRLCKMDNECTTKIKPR
Protocol: Determination of the % Inhibition for FXIa
Human FXIa (Enzyme Research Laboratories) was incubated at 25° C. with the fluorogenic substrate Z-Gly-Pro-Arg-AFC and various concentrations of the test compound. Residual enzyme activity (initial rate of reaction) was determined by measuring the change in fluorescence at 410 nm and the IC50 value for the test compound was determined.

| IC50 (Human Factor XIIa) [µM] | IC50 (Human FXIa) [µM] | Structure (SMILES) |
| --- | --- | --- |
| 0.28 to 1 | > 40 | CC(C)c1cc(C(=O)N[C@@H](Cc2ccc(F)c(F)c2)C(=O)NCc2ccc3c(N)nccc3c2)nc2ncnn12 [Example 0.64, (S)—N-(1-(((1-Aminoisoquinolin-6-yl)methyl)amino)-3-(3,4-difluorophenyl)-1-oxopropan-2-yl)-7-isopropyl-[1,2,4]triazolo[1,5-a]pyrimidine-5-carboxamide] |
| 10 to 40 | 10 to 40 | C[C@H](NC(=O)[C@H](N)COc1ccccc1)C(=O)NCc1ccc2c(N)nccc2c1 [Example 6.17] |
| 10 to 40 | 3 to 10 | C[C@H](NC(=O)[C@H]1Cc2ccccc2CN1)C(=O)NCc1ccc2c(N)nccc2c1 [Example 45.04] |
| 0.03 to 0.1 | > 40 | CC(C)N[C@H](CCc1ccccc1)C(=O)N[C@@H](C)C(=O)NCc1cc2c(N)nccc2s1 [Example 9.27, (2R)—N-[(1S)-1-[({4-Aminothieno[3,2-c]pyridin-2-yl}methyl)carbamoyl]ethyl]-2-(isopropylamino)-4-phenylbutanamide] |
| < 0.03 | > 40 | CC(C)N[C@H](CCCCN1CCCCC1)C(=O)N[C@@H](Cc1ccc(F)c(F)c1)C(=O)NCc1ccc2c(N)nccc2c1 [Example 12.03] |
| 10 to 40 | > 40 | CC(NC(=O)[C@H](N)CCc1ccccc1)C(=O)NCc1ccc2ccnc(N)c2c1 (stereo partly shown) [Example 6.21] |
| 0.03 to 0.1 | 3 to 10 | CC(C)N[C@H](CCCCN1CCCCC1)C(=O)N[C@@H](Cc1c[nH]c2ccccc12)C(=O)NCc1ccc2c(N)nccc2c1 [Example 12.05] |
| 3 to 10 | 1 to 3 | Nc1nccc2cc(CNC(=O)C3CC4CCC3N(C(=O)[C@H](N)CCc3ccccc3)C4)ccc12 (stereo partly shown) [Example 17.06] |
| 10 to 40 | > 40 | O=C(NCc1ccc2[nH]cc(Cl)c2c1)[C@@H]1CCN1C(=O)CCCCCN1CCCCC1 [Example 10.16] |
| 10 to 40 | > 40 | CC(C)Oc1cc(C(=O)N[C@@H](Cc2ccc(F)c(F)c2)C(=O)NCc2ccc3c(N)nccc3c2)ccn1 [Example 0.95] |
| 0.28 to 1 | > 40 | CC(C)N[C@H](CCCCN1CCCCC1)C(=O)N1CC[C@H]1C(=O)NCc1ccc2c(N)nccc2c1 [Example 17.10] |
| 1 to 3 | 3 to 10 | C[C@H](NC(=O)[C@H]1C[C@H](c2ccccc2)CN1)C(=O)NCc1ccc2c(N)nccc2c1 [Example 45.03] |
| 0.03 to 0.1 | 10 to 40 | CC(C)N[C@H](CCCCN1CCCCC1)C(=O)N1CC[C@H]1C(=O)NCc1ccc2[nH]cc(Cl)c2c1 [Example 10.01, (2S)—N-[(3-Chloro-1H-indol-5-yl)methyl]-1-[(2R)-2-(isopropylamino)-6-(piperidin-1-yl)hexanoyl]azetidine-2-carboxamide] |
| 10 to 40 | > 40 | Nc1nccc2cc(CNC(=O)CNC(=O)c3ccc4ccccc4n3)ccc12 [Example 18.107] |
| 3 to 10 | 10 to 40 | CNC(C)(C)C(=O)N1C[C@H](c2ccccc2)C[C@H]1C(=O)NCc1ccc2c(N)nccc2c1 [Example 43.07] |
| 0.28 to 1 | > 40 | C[C@H](NC(=O)[C@H](N)CCc1ccccc1)C(=O)N[C@@H]1CCc2c1ccnc2N [Example 9.02] |
| 0.1 to 0.279 | 10 to 40 | CN[C@H](CCc1ccccc1)C(=O)N[C@@H](C)C(=O)NCc1ccc2c(N)nccc2c1 [Example 6.10] |
| 10 to 40 | 3 to 10 | Nc1nccc2cc(CNC(=O)[C@H]3CCC[C@@H]3NC(=O)[C@H](N)CCc3ccccc3)ccc12 [Example 17.07] |
| 3 to 10 | 3 to 10 | C[C@H](NC(=O)[C@@H]1C=C(c2ccccc2)CN1)C(=O)NCc1ccc2c(N)nccc2c1 [Example 45.02] |
| 0.28 to 1 | > 40 | CC(C)N[C@H](CCCCN1CCCCC1)C(=O)N1C[C@@H](c2ccc(F)c(F)c2)[C@H]1C(=O)NCc1ccc2[nH]cc(Cl)c2c1 [Example 10.07] |
| 0.28 to 1 | 10 to 40 | Nc1nccc2cc(CNC(=O)[C@@H]3CCN3C(=O)[C@H](N)CCc3ccccc3)ccc12 [Example 17.05] |

| IC50 (Human Factor XIIa) [µM] | IC50 (Human FXIa) [µM] | Structure (SMILES) |
| --- | --- | --- |
| 0.1 to 0.279 | > 40 | C[C@H](NC(=O)[C@@H](CCc1ccccc1)N1CCCC1)C(=O)NCc1ccc2c(N)nccc2c1 [Example 6.23] |
| 10 to 40 | 10 to 40 | C[C@H](NC(=O)[C@H](N)COCc1ccccc1)C(=O)NCc1ccc2c(N)nccc2c1 [Example 6.16] |
| 0.1 to 0.279 | > 40 | CC1CCCC(C)N1CC(=O)N[C@@H](Cc1ccc(F)c(F)c1)C(=O)NCc1ccc2c(N)nccc2c1 (stereo partly shown) [Example 3.01] |
| 0.28 to 1 | > 40 | N[C@H](CCCCN1CCOCC1)C(=O)N1CC[C@H]1C(=O)NCc1cnc2[nH]cc(Cl)c2c1 [Example 10.03] |
| 10 to 40 | 10 to 40 | CC(C)(O)C(=O)N1C[C@H](c2ccccc2)C[C@H]1C(=O)NCc1ccc2c(N)nccc2c1 [Example 43.04] |
| 10 to 40 | > 40 | C[C@@H]1CCC[C@H](C)N1CC(=O)NC1(C(=O)NCc2ccc3c(N)nccc3c2)CCOCC1 [Example 39.11] |
| 3 to 10 | > 40 | N[C@H](CCCCN1CCCC(F)(F)C1)C(=O)N1CC[C@H]1C(=O)NCc1ccc2[nH]cc(Cl)c2c1 [Example 10.15] |
| < 0.03 | 10 to 40 | CC(C)N[C@H](CCCCN1CCCCC1)C(=O)N[C@@H](Cc1ccc(F)c(F)c1)C(=O)NCc1ccc2[nH]cc(Cl)c2c1 [Example 27.03] |
| 3 to 10 | > 40 | C[C@H](NC(=O)[C@H](N)CCc1ccccc1)C(=O)NCc1ccc2[nH]cc(Cl)c2c1 [Example 9.04] |
| 3 to 10 | 10 to 40 | C[C@H](NC(=O)[C@@H](CCc1ccccc1)NC(=O)OC(C)(C)C)C(=O)NCc1ccc2c(N)nccc2c1 [Example 6.25] |
| 10 to 40 | 10 to 40 | CC(C)N[C@H](Cc1c[nH]c2ccccc12)C(=O)N1CC[C@H]1C(=O)NCc1ccc2[nH]cc(Cl)c2c1 [Example 10.18] |
| 3 to 10 | > 40 | N[C@H](CCCCn1ccnc1)C(=O)N1CC[C@H]1C(=O)NCc1ccc2[nH]cc(Cl)c2c1 [Example 10.13] |
| 0.03 to 0.1 | 0.3 to 1 | C[C@H](NC(=O)[C@@H](CCc1ccccc1)NC1CCCCC1)C(=O)NCc1ccc2c(N)nccc2c1 [Example 6.19] |
| 10 to 40 | 3 to 10 | COc1cc2c(N)nccc2cc1CNC(=O)[C@H](C)NC(=O)[C@H](N)CCc1ccccc1 [Example 6.22] |
| 3 to 10 | > 40 | CC(C)N[C@H](CCCCN1CCCCC1)C(=O)N[C@@H](Cc1ccc(-c2ccccc2)cc1)C(=O)NCc1ccc2c(N)nccc2c1 [Example 12.10] |
| 3 to 10 | > 40 | C[C@@H]1CCC[C@H](C)N1CC(=O)NC1(C(=O)NCc2ccc3c(N)nccc3c2)CC1 [Example 39.09] |
| 0.1 to 0.279 | 10 to 40 | CC(C)N[C@H](CCc1ccccc1)C(=O)N1CC[C@H]1C(=O)NCc1ccc2c(N)nccc2c1 [Example 17.09, (2S)—N-[(1-aminoisoquinolin-6-yl)methyl]-1-[(2R)-2-(isopropylamino)-4-phenylbutanoyl]azetidine-2-carboxamide] |
| 3 to 10 | > 40 | C[C@H](NC(=O)[C@H](N)CCc1ccncc1)C(=O)NCc1ccc2c(N)nccc2c1 [Example 6.15] |
| 0.1 to 0.279 | > 40 | C[C@H](NC(=O)[C@H](N)CCc1ccccc1)C(=O)NCc1cc2c(N)nccc2s1 [Example 9.07, (2R)—N-[(1S)-1-[({4-Aminothieno[3,2-c]pyridin-2-yl}methyl)carbamoyl]ethyl]-2-amino-4-phenylbutanamide] |
| 0.1 to 0.279 | 10 to 40 | C[C@H](NC(=O)[C@H](N)CCc1ccccc1)C(=O)NCc1ccc2c(N)nccc2c1 [Example 6.09] |
